Data set [1] deals with A549/DDP (Cisplatin Resistant). Description: Cell proliferation IC50, Crystal Violet assay. Format: cell-based, human. The note with it: 72 h.
Another data set relates to 95C. Briefly: Cell proliferation IC50, Crystal Violet assay. Format: cell-based, human. The note with it: 95C (Non-Met); 72 h; single agent; mean ± SEM. From the text:
(§1) Exemplary Embodiments are generally performed as follows, unless otherwise noted. Simvastatin is purchased from Ark Pharm, Inc. (Arlington Heights, IL). Cisplatin (CIS) is purchased from MedKoo Biosciences, Inc. (Chapel Hill, NC). Dihydroartemisinin is purchased from TCI America (Portland, OR). All other chemicals and reagents are purchased from standard sources such as Sigma-Aldrich and/or VWR and are of highest quality available. Puromycin dihydrochloride was purchased from Alfa Aesar (Tewksbury, MA). Deionized water ([…]) used for making solutions is obtained from Milli-Q Direct Ultrapure Water System from Millipore (Billerica, MA, USA). All intermediates are characterized by 1H NMR and mass analysis and the purity of compounds are analyzed by HPLC. 1H NMR data are collected on Bruker 400 MHz spectrometers using standard parameters; chemical shifts are reported in ppm (δ) in reference to residual non-deuterated solvent. ESI mass spectroscopy analysis is performed using a Thermo Fisher LTQ Orbitrap Elite system. IC50 is the half maximal inhibitory concentration and determined is determined by crystal violet assay unless otherwise noted.
(§2) H446 is a SCLC cell line. […] Drugs tested and compared include CIS and DZ-CIS ester. Each drug is used as single agent.

Another data set relates to 95D. Briefly: Cell proliferation IC50, Crystal Violet assay. The note with it: 95D (Met); 72 h; single agent; mean ± SEM. Format: cell-based, human.
Description: as §1, §2

The next data set relates to H446. Briefly: Cell proliferation IC50, Crystal Violet assay. Format: cell-based, human. The note with it: SCLC H446; 72 h; single agent; mean ± SEM.
Description: as §1, §2

Another data set concerns YTMLC. Briefly: Cell proliferation IC50, Crystal Violet assay. In kind it is cell-based, human. The note with it: 72 h, single agent, mean ± SEM.
Description: as §1, §2

The next data set relates to ACHN. Description: Renal cancer cell growth IC50 (crystal violet). In kind it is cell-based, human.
Description: as §1
(§3) The crystal violet assay is performed as follows, unless otherwise noted. Cell lines are supplemented with RPMI 1640 medium, 10% fetal bovine serum, 1% PenStrep, and placed in a humidified atmosphere containing 5% CO2 at 37° C. 5,000 cells/well renal cancer cells and 10,000 cells/well lymphoma cells are seeded in 96 well plates in 100 microliter medium/per well for 24 h. […] Renal cancer cells are fixed with 3.7% paraformaldehyde for 15 minutes and are stained with Crystal violet solution (0.5% in 25% methanol) for 30 minutes. After rinsing with water cell layers are dried and decolorized with Sorenson citrate with shaking for 20 minutes. Light absorption of the extracted supernatant is read at 595 nm. Lymphoma cell growth was evaluated using MTT and cells are incubated for 4 hours. 100 microliters of isopropanol is added, and the extracted supernatant fraction is read at absorption maximum of 595 nm.
(§4) Standard cell culture conditions typically are RPMI 1640 medium, 10% fetal bovine serum, 1% PenStrep, and are performed in a humidified atmosphere containing 5% CO2 at 37° C. Generally, 5,000 cells/well-10,000 cells/well are seeded in 96 well plates in 100 microliter medium/per well for 24 h, or as described in Example 16, unless otherwise noted. Certain cells require specialized media, growth factors, antibiotics, or culture condition adjustments, as will be apparent to a person of ordinary skill in the art.
as §3, with “Cell” for “The crystal violet assay is performed as follows, unless otherwise noted. Cell”, “cultured as follows. […]” for “supplemented with RPMI 1640 medium, 10% fetal bovine serum, 1% PenStrep, and placed in a humidified atmosphere containing 5% CO2 at 37° C.”, “is” for “was”

Another data set has as its system Caki-1. Briefly: Renal cancer cell growth IC50 (crystal violet). Format: cell-based, human. The note with it: Caki-1.
Description: as §1, §3, §4
as §3, with “Cell” for “The crystal violet assay is performed as follows, unless otherwise noted. Cell”, “cultured as follows. […]” for “supplemented with RPMI 1640 medium, 10% fetal bovine serum, 1% PenStrep, and placed in a humidified atmosphere containing 5% CO2 at 37° C.”, “is” for “was”

The test system of the next data set is SKRC. Description: Renal cancer cell growth IC50 (crystal violet). Format: cell-based, human.
Description: as §1, §3, §4
as §3, with “Cell” for “The crystal violet assay is performed as follows, unless otherwise noted. Cell”, “cultured as follows. […]” for “supplemented with RPMI 1640 medium, 10% fetal bovine serum, 1% PenStrep, and placed in a humidified atmosphere containing 5% CO2 at 37° C.”, “is” for “was”

The next data set deals with o-786. Briefly: Renal cancer cell growth IC50 (crystal violet). In kind it is cell-based, human.
Description: as §1, §3, §4
as §3, with “Cell” for “The crystal violet assay is performed as follows, unless otherwise noted. Cell”, “cultured as follows. […]” for “supplemented with RPMI 1640 medium, 10% fetal bovine serum, 1% PenStrep, and placed in a humidified atmosphere containing 5% CO2 at 37° C.”, “is” for “was”

In a further data set the test system is OV90. Description: Ovarian cancer cell growth IC50 (crystal violet). In kind it is cell-based, human.
Description: as §1, §4
(§5) OV90 and OVCA433 are grown in vitro according to their standard culturing conditions, and an assay such as the crystal violet assay is performed.

Another data set has as its system OVCA 433. Briefly: Ovarian cancer cell growth IC50 (crystal violet). Format: cell-based, human.
Description: as §1, §4, §5

The test system of data set [2] is Ramos, a B-cell lymphoma, cultured as 3-D spheroids. Description: Cell viability IC50 in 3-D spheroids. Format: cell-based, human. The note with it: Ramos 3-D spheroids; 72 h; single agent.
Description: as §1
Cancer cells were Ramos, a B-cell lymphoma, cultured as 3-D spheroids, cultured according to their standard culturing conditions.

The test system of data set [3] is human lymphoma cell lines (Daudi, Raji, Namalwa, Ramos and CA-46). Description: Growth IC50 in lymphoma cell line panel. Format: cell-based. The note with it: all lymphoma cell lines; 72 hours; read-out: IC50 across lymphoma cell lines. The method, then:
as §3

Data set [4] concerns human kidney carcinoma cell lines (ACHN, Caki-1, 0-786, SKRC). Briefly: Growth IC50 in kidney carcinoma cell line panel. Format: cell-based. The note with it: all kidney cancer cell lines; 72 hours; read-out: IC50 across kidney cancer cell lines. The procedure:
as §3
The significance for all results was p<0.0001.

In a further data set the test system is OV90 and OVCA 433. Briefly: Growth IC50 in ovarian cancer cell strains. The note with it: 72 h; read-out: IC50 across ovarian cancer cell strains OV90 and OVCA 433. Format: cell-based, human. The procedure:
as §5

Data set [5] concerns normal mouse kidney and liver. Description: Immunohistochemical staining of normal kidney and liver. Format: in vivo. The note with it: mice harbored with human Burkitt's lymphoma. An excerpt:
These normal kidney and liver tissues were obtained from mice harbored with human Burkitt's lymphoma.

The mark [6] stands for this setting: 72 hours, read-out: Half maximal inhibitory concentration (IC50).

Like-named read-outs stand apart in the source and are kept apart here. Some results are limits rather than exact numbers.

For `N.N.[Cl][Pt][Cl]` [CIS, cis-diamminedichloridoplatinum (II)], the IC50 in data set [1] (A549/DDP (Cisplatin Resistant), single agent, mean ± SEM, read-out: IC50) is 90 ± 1 µM; in [1] (read-out: IC50 of CIS, Mean, A549/DDP, CIS alone) it was 87.6 µM; with 95C, 12.7 ± 1 µM; in the data set with 95D it was more than 100 µM; in the data set on H446, 107.3 ± 1 µM; in the data set with YTMLC, 16.2 ± 1 µM. The IC50 with ACHN (setting [6]) was more than 64 µM; in the data set with ACHN (Example 15, read-out: IC50), more than 64 µM; in the data set with Caki-1 (setting [6]), more than 64 µM; in the data set with Caki-1 (Example 15, read-out: IC50), more than 64 µM; with SKRC (setting [6]), more than 64 µM; in the data set with SKRC (Example 15, read-out: IC50), more than 64 µM. In addition, the IC50 was more than 64 µM in the data set with o-786 (Example 15, O-786, read-out: IC50); more than 64 µM in the data set with o-786 (o-786, 72 hours, read-out: Half maximal inhibitory concentration (IC50)); more than 64 µM in the data set on OV90 (72 h); more than 64 µM in the data set with OV90 (Example 15); more than 64 µM with OVCA 433 (Example 15, OV433); more than 64 µM in the data set on OVCA 433 (OVCA 433, 72 h). In addition, the IC50 is 81.5 µM in data set [2]; more than 64 µM in [3]; more than 64 µM in data set [4]; more than 64 µM in the data set with OV90 and OVCA 433. For the same molecule, the “Apoptosis markers (cleaved caspas-3 and M30) / damage in normal kidney and liver” value in data set [5] is recorded as “elevated”.

The record behind these values is patent US12121510B2 (Cedars-Sinai Medical Center, priority 2016, dated 2024).
